{"source": "patent US20230357722A1", "about": "“METHODS FOR IDENTIFYING MODULATORS OF NATURAL KILLER CELL INTERACTIONS” (The Johns Hopkins University, priority 2020, published 2023)", "assay_type_in_all_cases": "cell-based, mouse", "key": {"[1]": {"test_system": "tumor-exposed NK cell-MMTV-PyMT tumor cluster co-culture", "test": "teNK cell-MMTV-PyMT tumor cluster co-culture colony formation assay", "details": "teNK cells pretreated with DNMT inhibitor at 1 μM for 24 hours before co-culture; FIG. 5C", "excerpt": "The capacity of candidate immunotherapies to reverse the effect of teNK cells on colony formation was investigated. Anti-PD-1 therapy has been reported to restore the function of anergic NK cells (Hsu J, et al. J Clin Invest. 2018; 128(10):4654-68). […] Targeted receptors were next identified in the RNA expression analysis, specifically TIGIT and KLRG1. TIGIT is an emerging immune checkpoint on NK cells and T cells and anti-TIGIT therapies are in clinical trials (Zhang Q, et al. Blockade of the checkpoint receptor TIGIT prevents NK cell exhaustion and elicits potent anti-tumor immunity. Nat Immunol. 2018; 19(7):723-32). KLRG1, a marker of senescent NK cells and T cells and a recently reported inhibitor of NK cell function (Muller-Durovic B, et al. J Immunol. 2016; 197(7):2891-9), was highly expressed by teNK cells. […] The broad gene expression differences between hNK and teNK cells provided the motivation to identify epigenetic regulators of NK cell state. […] Experiments were then carried out seeking to validate the functional significance of these findings in the co-culture models. […] It was assessed whether the combination of FDA approved DNA methyltransferase inhibitors and anti-TIGIT or anti-KLRG1 would prevent colonies from being formed in co-culture. […]"}, "TIGIT": {"test_system": "TIGIT", "test": "RT-qPCR of TIGIT in teNK cells treated with DNMT inhibitors", "details": "teNK cells pretreated with DNMT inhibitor; FIG. 10F", "excerpt": "(§1) Natural killer cell isolation. Primary splenocytes were isolated by mechanical dissociation from spleens of wild-type FVB/n, MMTV-PyMT, or C3(1)-Tag mice, or from the tumors of MMTV-PyMT mice. NK cells isolated from WT FVB/n mice are defined as healthy NK (hNK) cells and those isolated from tumor bearing mice are defined as tumor-exposed NK (teNK) cells. NK cells isolated from MMTV-PyMT tumors are defined as tumor-infiltrating NK cells. The NK cells were purified from isolated splenocytes using EasySep Mouse NK Cell Isolation Kit per the manufacturer's protocol (#19855; Stemcell Technologies). The isolated cells were then positively selected by FACS by gating on CD49b+/CD3− cells and CD45+/CD49b+/CD3− for NK cells isolated from tumors. NK cells were cultured in media at 37° C. containing 200 U/ml recombinant mouse IL-2 (#402-ML-100, R&D Systems), 5 ng/ml recombinant mouse IL-15 (#447-ML-010, R&D Systems) or 5 ng/ml recombinant mouse IL-I5:IL-15R complex (#14-8152-62, Thermo Fisher) for 16 h before use in assays. […]\n(§2) RNA Extraction and Quantitative PCR. […] Quantitative PCR was conducted using the SsoAdvanced Universal SYBR Green Supermix (BioRad #1725271) with 500 pg cDNA and 500 nM primers per reaction. […] Target gene expression values were normalized to GAPDH expression and fold change was calculated as 2-ΔΔCt. […]"}, "KLRG1": {"test_system": "KLRG1", "test": "RT-qPCR of KLRG1 in teNK cells treated with DNMT inhibitors", "details": "teNK cells pretreated with DNMT inhibitor; FIG. 10F", "excerpt": "as §1, §2"}}}
{"smiles": "Nc1ncn([C@@H]2O[C@H](CO)[C@@H](O)[C@H]2O)c(=O)n1", "note": "[azacitidine]", "values": [{"measurement": "colony formation (normalized colony count)", "setting": "[1]", "result": "neutralized the effect of teNK cells in co-culture"}, {"measurement": "gene expression of TIGIT by qPCR", "setting": "TIGIT", "result": "reduced gene expression of TIGIT"}, {"measurement": "gene expression of KLRG1 by qPCR", "setting": "KLRG1", "result": "reduced gene expression of TIGIT and KLRG1"}]}
